# Measured values: PubChem BioAssay AID256 (DTP/NCI, 2004)
# Values joined by “and” are separate entries in the source; they are usually repeats but may differ in a detail not shown here. Equal entries are not always repeated. Inconclusive results and toxic doses are left out.
# Tested on: CD2F1 mice, L1210 leukemia ip, survival T/C
# Experiment: NCI In Vivo Anticancer Drug Screen. Data for tumor model L1210 Leukemia (intraperitoneal) in CD2F1 (CDF1) mice
# Conditions: higher = longer survival
# In short: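 Implant tumor; dose compound or vehicle; measure endpoint in both groups; report treated divided by control.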
# [1] = endpoint: mean survival time, dose: 100.0 mg/kg/injection, schedule: Q04DX003 (ip), vehicle: saline with Tween-80
# [2] = endpoint: mean survival time, dose: 200.0 mg/kg/injection, schedule: Q04DX003 (ip), vehicle: saline with Tween-80
# [3] = endpoint: mean survival time, dose: 400.0 mg/kg/injection, schedule: Q04DX003 (ip), vehicle: saline with Tween-80
# [4] = endpoint: mean survival time, dose: 75.0 mg/kg/injection, schedule: Q01DX001 (ip), vehicle: other
# [5] = endpoint: mean survival time, dose: 100.0 mg/kg/injection, schedule: Q01DX009 (ip), vehicle: saline with Tween-80
# [6] = endpoint: mean survival time, dose: 200.0 mg/kg/injection, schedule: Q01DX009 (ip), vehicle: saline with Tween-80
# [7] = endpoint: mean survival time, dose: 400.0 mg/kg/injection, schedule: Q01DX009 (ip), vehicle: saline with Tween-80
smiles,measurement,setting,value
O=C(O)C(O)C(O)C(O)C(O)C(=O)O.[NH-]C1CCCCC1[NH-].[Pt+2] (stereo not drawn),T/C,"endpoint: median survival time, dose: 6.25 mg/kg/injection, schedule: Q04DX003 (ip), vehicle: saline",116 % of control and 112 % of control
same,T/C,"endpoint: median survival time, dose: 12.5 mg/kg/injection, schedule: Q04DX003 (ip), vehicle: saline",121 % of control and 123 % of control
same,T/C,"endpoint: median survival time, dose: 25.0 mg/kg/injection, schedule: Q04DX003 (ip), vehicle: saline",123 % of control
same,T/C,"endpoint: median survival time, dose: 50.0 mg/kg/injection, schedule: Q04DX003 (ip), vehicle: saline",151 % of control and 152 % of control
same,T/C,"endpoint: median survival time, dose: 100.0 mg/kg/injection, schedule: Q04DX003 (ip), vehicle: saline",167 % of control and 187 % of control
NC(=O)SCC(N)C(=O)O (stereo not drawn),T/C,"endpoint: mean survival time, dose: 50.0 mg/kg/injection, schedule: Q01DX009 (ip), vehicle: saline",101 % of control
same,T/C,"endpoint: mean survival time, dose: 100.0 mg/kg/injection, schedule: Q01DX009 (ip), vehicle: saline",101 % of control
same,T/C,"endpoint: mean survival time, dose: 200.0 mg/kg/injection, schedule: Q01DX009 (ip), vehicle: saline",109 % of control
same,T/C,"endpoint: mean survival time, dose: 300.0 mg/kg/injection, schedule: Q01DX009 (ip), vehicle: saline",107 % of control
Cc1cc2ccccc2[n+](C)c1-c1ccccc1Cl (tested in a mixture with another compound),T/C,"endpoint: mean survival time, dose: 5.0 mg/kg/injection, schedule: Q01DX009 (ip), vehicle: saline",104 % of control
same,T/C,"endpoint: mean survival time, dose: 5.0 mg/kg/injection, schedule: Q04DX003 (ip), vehicle: saline",101 % of control
same,T/C,"endpoint: mean survival time, dose: 10.0 mg/kg/injection, schedule: Q01DX009 (ip), vehicle: saline",100 % of control
same,T/C,"endpoint: mean survival time, dose: 10.0 mg/kg/injection, schedule: Q04DX003 (ip), vehicle: saline",101 % of control
same,T/C,"endpoint: mean survival time, dose: 20.0 mg/kg/injection, schedule: Q04DX003 (ip), vehicle: saline",105 % of control
C=CCCC(=O)CCCC(=O)O[C@@H]1[C@@H]2[C@H](CC1(C)C)[C@H](O)[C@@]13O[C@@H]1[C@H](O)[C@@]1(CO1)[C@@]23C,T/C,"endpoint: mean survival time, dose: 6.2 micrograms/kg/injection, schedule: Q01DX009 (ip), vehicle: saline",95 % of control
same,T/C,"endpoint: mean survival time, dose: 12.5 micrograms/kg/injection, schedule: Q01DX009 (ip), vehicle: saline",89 % of control
same,T/C,"endpoint: mean survival time, dose: 25.0 micrograms/kg/injection, schedule: Q01DX009 (ip), vehicle: saline",95 % of control
same,T/C,"endpoint: mean survival time, dose: 50.0 micrograms/kg/injection, schedule: Q01DX009 (ip), vehicle: saline",97 % of control
same,T/C,"endpoint: median survival time, dose: 25.0 micrograms/kg/injection, schedule: Q01DX009 (ip), vehicle: Klucel (hydroxypropylcellulose) (HPC)",101 % of control
same,T/C,"endpoint: median survival time, dose: 50.0 micrograms/kg/injection, schedule: Q01DX009 (ip), vehicle: Klucel (hydroxypropylcellulose) (HPC)",101 % of control
same,T/C,"endpoint: median survival time, dose: 100.0 micrograms/kg/injection, schedule: Q01DX009 (ip), vehicle: Klucel (hydroxypropylcellulose) (HPC)",100 % of control
same,T/C,"endpoint: median survival time, dose: 200.0 micrograms/kg/injection, schedule: Q01DX009 (ip), vehicle: Klucel (hydroxypropylcellulose) (HPC)",94 % of control
same,T/C,"endpoint: median survival time, dose: 400.0 micrograms/kg/injection, schedule: Q01DX009 (ip), vehicle: Klucel (hydroxypropylcellulose) (HPC)",97 % of control
CCCCNC(C)(C)C(SSSC(c1ccc(C(F)(F)F)cc1)C(C)(C)NCCCC)c1ccc(C(F)(F)F)cc1 (stereo not drawn),T/C,"endpoint: mean survival time, dose: 100.0 mg/kg/injection, schedule: Q04DX003 (ip), vehicle: saline",92 % of control
same,T/C,"endpoint: mean survival time, dose: 200.0 mg/kg/injection, schedule: Q04DX003 (ip), vehicle: saline",94 % of control
same,T/C,"endpoint: mean survival time, dose: 400.0 mg/kg/injection, schedule: Q04DX003 (ip), vehicle: saline",100 % of control
Nc1ncnc(N)c1NC(=O)c1cccc(OCc2ccccc2)c1,T/C,[1],100 % of control
same,T/C,[2],91 % of control
same,T/C,[3],94 % of control
CCOP(=O)(OCC)C1=C(SCC)C(F)(F)C(F)(F)C1(F)F,T/C,[4],104 % of control
Nc1nc2c(nc(NCc3ccccc3)n2C2OC(CO)C(O)C2O)c(=O)[nH]1 (stereo not drawn),T/C,"endpoint: mean survival time, dose: 6.25 mg/kg/injection, schedule: Q01DX005 (ip), vehicle: distilled water + Tween-80",97 % of control
same,T/C,"endpoint: mean survival time, dose: 12.5 mg/kg/injection, schedule: Q01DX005 (ip), vehicle: distilled water + Tween-80",95 % of control
same,T/C,"endpoint: mean survival time, dose: 25.0 mg/kg/injection, schedule: Q01DX005 (ip), vehicle: distilled water + Tween-80",95 % of control
same,T/C,"endpoint: mean survival time, dose: 50.0 mg/kg/injection, schedule: Q01DX005 (ip), vehicle: distilled water + Tween-80",90 % of control
same,T/C,"endpoint: mean survival time, dose: 100.0 mg/kg/injection, schedule: Q01DX005 (ip), vehicle: distilled water + Tween-80",90 % of control
CCCC[P+](CO)(CCCC)CCCC,T/C,"endpoint: mean survival time, dose: 7.5 mg/kg/injection, schedule: Q04DX003 (ip), vehicle: saline",103 % of control
same,T/C,"endpoint: mean survival time, dose: 15.0 mg/kg/injection, schedule: Q04DX003 (ip), vehicle: saline",98 % of control
same,T/C,"endpoint: mean survival time, dose: 30.0 mg/kg/injection, schedule: Q04DX003 (ip), vehicle: saline",101 % of control
CCSC(CC(O)C(O)C(O)CO)n1cnc2c(Cl)ncnc21 (stereo not drawn),T/C,"endpoint: mean survival time, dose: 12.5 mg/kg/injection, schedule: Q01DX005 (ip), vehicle: water",100 % of control
same,T/C,"endpoint: mean survival time, dose: 25.0 mg/kg/injection, schedule: Q01DX005 (ip), vehicle: water",105 % of control
same,T/C,"endpoint: mean survival time, dose: 50.0 mg/kg/injection, schedule: Q01DX005 (ip), vehicle: water",102 % of control
same,T/C,"endpoint: mean survival time, dose: 100.0 mg/kg/injection, schedule: Q01DX005 (ip), vehicle: water",107 % of control
same,T/C,"endpoint: mean survival time, dose: 200.0 mg/kg/injection, schedule: Q01DX005 (ip), vehicle: water",104 % of control
O=C(O)c1ccccc1Nc1ccc(Br)cc1,T/C,"endpoint: mean survival time, dose: 25.0 mg/kg/injection, schedule: Q04DX003 (ip), vehicle: saline with Tween-80",95 % of control
same,T/C,"endpoint: mean survival time, dose: 50.0 mg/kg/injection, schedule: Q04DX003 (ip), vehicle: saline with Tween-80",104 % of control
same,T/C,[1],93 % of control and 112 % of control
same,T/C,[2],98 % of control
Cc1ccc(C(=S)NC(=O)Nc2ccccc2)cc1,T/C,"endpoint: mean survival time, dose: 100.0 mg/kg/injection, schedule: Q01DX001 (ip), vehicle: saline with Tween-80",97 % of control
same,T/C,"endpoint: mean survival time, dose: 200.0 mg/kg/injection, schedule: Q01DX001 (ip), vehicle: saline with Tween-80",94 % of control
same,T/C,"endpoint: mean survival time, dose: 400.0 mg/kg/injection, schedule: Q01DX001 (ip), vehicle: saline with Tween-80",97 % of control
O=CC(O)C(O)C(OC1OC(CO)C(OC2OC(CO)C(O)C(O)C2O)C(O)C1O)C(O)CO (stereo not drawn),T/C,[5],98 % of control
same,T/C,[6],95 % of control
same,T/C,[7],95 % of control
CC(C)(CO)N=Cc1ccccc1F,T/C,[4],97 % of control
same,T/C,"endpoint: mean survival time, dose: 150.0 mg/kg/injection, schedule: Q01DX001 (ip), vehicle: other",96 % of control
same,T/C,"endpoint: mean survival time, dose: 300.0 mg/kg/injection, schedule: Q01DX001 (ip), vehicle: other",93 % of control
O=C(NC(=S)Nc1cccc(O)c1)c1cccc(Br)c1,T/C,[5],96 % of control
same,T/C,[6],96 % of control
same,T/C,[7],97 % of control
NNC(=O)c1ccc(C(=O)NN)cc1,T/C,"endpoint: mean survival time, dose: 100.0 mg/kg/injection, schedule: Q01DX001 (ip), vehicle: Klucel (hydroxypropylcellulose) (HPC)",91 % of control
same,T/C,[5],97 % of control
same,T/C,[1],94 % of control
same,T/C,"endpoint: mean survival time, dose: 200.0 mg/kg/injection, schedule: Q01DX001 (ip), vehicle: Klucel (hydroxypropylcellulose) (HPC)",100 % of control
same,T/C,[6],107 % of control
same,T/C,[2],96 % of control
same,T/C,"endpoint: mean survival time, dose: 400.0 mg/kg/injection, schedule: Q01DX001 (ip), vehicle: Klucel (hydroxypropylcellulose) (HPC)",88 % of control
same,T/C,[7],104 % of control
same,T/C,[3],96 % of control
CN1C(=O)CN=C(c2ccccc2)c2cc(Cl)ccc21,T/C,"endpoint: mean survival time, dose: 12.5 mg/kg/injection, schedule: Q01DX009 (ip), vehicle: Klucel (hydroxypropylcellulose) (HPC)",100 % of control
same,T/C,"endpoint: mean survival time, dose: 25.0 mg/kg/injection, schedule: Q01DX009 (ip), vehicle: Klucel (hydroxypropylcellulose) (HPC)",104 % of control
same,T/C,"endpoint: mean survival time, dose: 50.0 mg/kg/injection, schedule: Q01DX009 (ip), vehicle: Klucel (hydroxypropylcellulose) (HPC)",100 % of control
same,T/C,"endpoint: mean survival time, dose: 200.0 mg/kg/injection, schedule: Q01DX009 (ip), vehicle: Klucel (hydroxypropylcellulose) (HPC)",90 % of control
c1ccc2nc(NCCSSCCNc3cnc4ccccc4n3)cnc2c1,T/C,"endpoint: mean survival time, dose: 100.0 mg/kg/injection, schedule: Q01DX009 (ip), vehicle: saline sonified",92 % of control
same,T/C,[1],94 % of control
same,T/C,"endpoint: mean survival time, dose: 200.0 mg/kg/injection, schedule: Q01DX009 (ip), vehicle: saline sonified",93 % of control
same,T/C,[2],101 % of control
same,T/C,"endpoint: mean survival time, dose: 400.0 mg/kg/injection, schedule: Q01DX009 (ip), vehicle: saline sonified",87 % of control
same,T/C,[3],96 % of control
Nc1ncnc2c1ncn2[C@@H](/C=N\O)O[C@@H](/C=N\O)CO,T/C,"endpoint: median survival time, dose: 12.5 mg/kg/injection, schedule: Q01DX005 (ip), vehicle: water",100 % of control
same,T/C,"endpoint: median survival time, dose: 25.0 mg/kg/injection, schedule: Q01DX005 (ip), vehicle: water",96 % of control
same,T/C,"endpoint: median survival time, dose: 50.0 mg/kg/injection, schedule: Q01DX005 (ip), vehicle: water",103 % of control
same,T/C,"endpoint: median survival time, dose: 100.0 mg/kg/injection, schedule: Q01DX005 (ip), vehicle: water",97 % of control
same,T/C,"endpoint: median survival time, dose: 200.0 mg/kg/injection, schedule: Q01DX005 (ip), vehicle: water",90 % of control
